In US20060205682A1, “Antibiotic and combinations of antibiotic and symptomatic relief agent formulations” (priority 2005, published 2006):
Converted amounts (≈) assume the structure as drawn.

Assay: physchem
Details: pH 8, aqueous buffer, thermodynamic from solid
Method: A 5 ml aliquot of 5% potassium phosphate buffer is added to 500 mg of gamma-cyclodextrin and sonicated until a clear solution is formed. […] The process is repeated with two additional amounts of gamma-cyclodextrin. Known aliquots of each solution are placed in a 2 cm cell and analyzed using a UV-Vis Spectrophotomer between the wavelengths 200-400 nm.

- solubility thermodynamic at 30 min: 350 µg/mL (≈ 1210 µM)
SMILES: COc1cc(Cc2cnc(N)nc2N)cc(OC)c1OC [trimethoprim]
